Here are results for six compounds from US8138189B2, “Substituted benzene compounds as modulators of the glucocorticoid receptor” (Hoffman-La Roche Inc., priority 2009, dated 2012).

Data set [1] has as its target T1, full length human recombinant glucocorticoid receptor (Homo sapiens, UniProt P04150).
T1 construct: partially purified full length human recombinant glucocorticoid receptor; purchased Panvera/Invitrogen PV4302
T1 sequence (P04150 1-777): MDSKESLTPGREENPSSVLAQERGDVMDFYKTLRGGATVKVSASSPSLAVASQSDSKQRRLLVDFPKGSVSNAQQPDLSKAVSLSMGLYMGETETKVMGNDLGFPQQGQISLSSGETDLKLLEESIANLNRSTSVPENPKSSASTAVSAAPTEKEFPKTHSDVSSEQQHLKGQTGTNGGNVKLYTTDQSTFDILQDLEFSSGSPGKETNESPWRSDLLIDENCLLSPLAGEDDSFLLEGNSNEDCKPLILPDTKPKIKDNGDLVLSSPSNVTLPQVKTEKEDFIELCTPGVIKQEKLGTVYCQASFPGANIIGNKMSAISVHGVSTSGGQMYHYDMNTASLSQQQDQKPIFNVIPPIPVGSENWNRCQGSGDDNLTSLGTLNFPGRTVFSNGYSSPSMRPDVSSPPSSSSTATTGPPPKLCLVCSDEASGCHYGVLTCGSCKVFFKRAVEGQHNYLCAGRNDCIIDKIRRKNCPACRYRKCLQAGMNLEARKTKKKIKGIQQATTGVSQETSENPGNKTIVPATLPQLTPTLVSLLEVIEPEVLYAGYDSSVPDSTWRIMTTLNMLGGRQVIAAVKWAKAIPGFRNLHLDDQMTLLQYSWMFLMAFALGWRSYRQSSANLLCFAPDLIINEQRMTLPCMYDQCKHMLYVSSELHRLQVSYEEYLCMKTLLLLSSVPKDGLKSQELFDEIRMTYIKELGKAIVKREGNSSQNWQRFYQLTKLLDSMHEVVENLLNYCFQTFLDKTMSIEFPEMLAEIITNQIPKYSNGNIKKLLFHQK
The experiment in a line: Glucocorticoid Receptor Binding Assay (fluorescence polarization competitor assay, Fluormone GS Far Red tracer). The method in brief:
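Partially purified full-length recombinant human GR with a stabilizing coactivator peptide was incubated with Fluormone GS Far Red tracer and serially diluted compound for 3 h at 22 °C in the dark, pH 7.4. Fluorescence polarization was read at 610-660 nm. IC50 came from sigmoidal fitting, and Ki from Cheng-Prusoff.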

In a further data set the test system is db/db mice. The note with it: cited from earlier work.
The test system of data set [2] is Hypothalamus-Pituitary gland-Adrenal gland (HPA) axis. The note with it: cited from earlier work.
For another data set, the system named is ob/ob mice. The note with it: cited from earlier work.
A further data set has as its system normal volunteers. The note with it: acute; cited from earlier work.
A further data set relates to Cushing's patients. To be noted: chronic; cited from earlier work.

By Ki is commonly meant a dissociation constant, usually derived from enzyme kinetics or from competition with a known ligand.

As for `Cc1cc([C@](O)([C@H](C)c2ccc(Oc3ccc(C(=O)O)cc3Cl)cc2Cl)C(F)(F)F)cn(C)c1=O` [Example 245, 3-Chloro-4-{3-chloro-4-[(1R,2R)-2-(1,5-dimethyl-6-oxo-1,6-dihydro-pyridin-3-yl)-3,3,3-trifluoro-2-hydroxy-1-methyl-propyl]-phenoxy}-benzoic acid], the inhibitory constant (Ki) in data set [1] came out at 0.4 nM. The same measure, in the same setting: next, `Cc1cc([C@@](O)([C@@H](C)c2ccc(Oc3ccc(C(=O)O)cn3)cc2Cl)C(F)(F)F)cn(C)c1=O` [Example 246, 6-{3-Chloro-4-[(1S,2S)-2-(1,5-dimethyl-6-oxo-1,6-dihydro-pyridin-3-yl)-3,3,3-trifluoro-2-hydroxy-1-methyl-propyl]-phenoxy}-nicotinic acid]: 0.5 nM; `Cc1cc([C@](O)([C@H](C)c2ccc(Oc3ccc(C(=O)O)cn3)cc2Cl)C(F)(F)F)cn(C)c1=O` [Example 247, 6-{3-Chloro-4-[(1R,2R)-2-(1,5-dimethyl-6-oxo-1,6-dihydro-pyridin-3-yl)-3,3,3-trifluoro-2-hydroxy-1-methyl-propyl]-phenoxy}-nicotinic acid]: 14.8 nM; `Cc1cc([C@@](O)([C@@H](C)c2ccc(Oc3ccc(C(=O)O)c(F)c3)cc2Cl)C(F)(F)F)cn(C)c1=O` [Example 248, 4-{3-Chloro-4-[(1S,2S)-2-(1,5-dimethyl-6-oxo-1,6-dihydro-pyridin-3-yl)-3,3,3-trifluoro-2-hydroxy-1-methyl-propyl]-phenoxy}-2-fluoro-benzoic acid]: 0.5 nM. In the case of `Cc1cc([C@](O)([C@H](C)c2ccc(Oc3ccc(C(=O)O)c(F)c3)cc2Cl)C(F)(F)F)cn(C)c1=O` [Example 249, 4-{3-Chloro-4-[(1R,2R)-2-(1,5-dimethyl-6-oxo-1,6-dihydro-pyridin-3-yl)-3,3,3-trifluoro-2-hydroxy-1-methyl-propyl]-phenoxy}-2-fluoro-benzoic acid], the Ki in data set [1] came to 4.2 nM. Regarding `CC#C[C@]1(O)CC[C@H]2[C@@H]3CCC4=CC(=O)CCC4=C3[C@@H](c3ccc(N(C)C)cc3)C[C@@]21C` [RU486/mifepristone, mifepristone], the “activity of gluconeogenic enzymes” value in the data set on db/db mice is listed as “normalizes”. Further, the “effect on HPA axis / endogenous corticosteroids circulating in the blood” value in data set [2] (feed-back mechanism) is on record as “increase of endogenous corticosteroids circulating in the blood”. In data set [2] (long term treatment (up to 1 year)), the adrenal insufficiency symptoms entry was “induces some adrenal insufficiency symptoms”. Besides, the fasting plasma glucose result is recorded as “normalizes fasting plasma glucose” in the data set with ob/ob mice and “decrease of fasting plasma glucose” in the data set with normal volunteers. In addition, the “plasmatic HbA1c” value with Cushing's patients is given as “decrease of plasmatic HbA1c”.
